Where two headings read alike, the source gives them in different places.
Tests used:
Type in all cases: cell-based
[1] = test system: Shigella flexneri KCTC 2517; test: Agar diffusion antibacterial test (aerobic); settings: S. flexneri
[2] = test system: Shigella sonnei KCTC 2518; test: Agar diffusion antibacterial test (aerobic); settings: S. sonnei
[3] = test system: Yersinia enterocolitica KCCM 41657; test: Agar diffusion antibacterial test (aerobic); settings: Y. enterocolitica
[4] = test system: Aeromonas salmonicida KCTC 12266; test: Agar diffusion antibacterial test (aerobic); settings: A. salmonicida
[5] = test system: Neisseria meningitidis KCCM 41562; test: Agar diffusion antibacterial test (aerobic); settings: N. meningitidis
[6] = test system: Moraxella catarrhalis KCCM 40056; test: Agar diffusion antibacterial test (aerobic); settings: M. catarrhalis
[7] = test system: Actiinobacillus ureae KCTC 2674; test: Agar diffusion antibacterial test (aerobic); settings: A. ureae
[8] = test system: Propionibacterium acne ATCC 6919; test: Agar diffusion antibacterial test (anaerobic); settings: P. acne
[9] = test system: Clostridium perfringens KCCM 12098; settings: C. perfringens
[10] = test system: Corynebacterium glutamicum KCTC 1445; test: Agar diffusion antibacterial test (anaerobic); settings: C. glutamicum
[11] = test system: Bacteroides fragilis KCTC 3688; test: Agar diffusion antibacterial test (anaerobic); settings: B. fragilis
[12] = test system: Pseudomonas aeruginosa KCTC 1637; test: MIC by broth dilution method; settings: P. aeruginosa, 37° C., 24 hours
[13] = test system: Bacillus subtilis KCTC 1021; test: MIC by broth dilution method; settings: B. subtilis, 37° C., 24 hours
[14] = test system: Shigella sonnei KCTC 2518; test: MIC by broth dilution method; settings: S. sonnei, 37° C., 24 hours
[15] = test system: Bordetella bronchiseptica KCCM 21998; test: MIC by broth dilution method; settings: B. bronchiseptica, 37° C., 24 hours
[16] = test system: Yersinia enterocolitica KCCM 41657; test: MIC by broth dilution method; settings: Y. enterocolitica, 37° C., 24 hours
[17] = test system: Moraxella catarrhalis KCCM 40056; test: MIC by broth dilution method; settings: M. catarrhalis, 37° C., 24 hours
[18] = test system: Clostridium dificile KCCM 12115; test: MIC by broth dilution method; settings: C. difficile, 37° C., 24 hours
[19] = test system: Helicobacter pylori KCTC 5335; test: MIC by broth dilution method; settings: H. pylori, 37° C., 24 hours

C=C1C(=O)OC[C@H]1O [S-(−)-tulipalin B, (4S)-4-hydroxy-3-methylene-oxolan-2-one]
0.10%: MIC [18]
14 mm: Inhibitory zone diameter ([8]; treatment concentration 0.3%) | Inhibitory zone diameter ([9]; treatment concentration 1.0%) | Inhibitory zone diameter ([11]; treatment concentration 0.1%)
18 mm: Inhibitory zone diameter ([1]; treatment concentration 0.3%) | Inhibitory zone diameter ([5]; treatment concentration 1.0%) | Inhibitory zone diameter ([6]; treatment concentration 1.0%) | Inhibitory zone diameter ([11]; treatment concentration 1.0%)
0.11%: MIC [12]
0.04%: MIC [13]
11.5 mm: Inhibitory zone diameter ([3]; treatment concentration 0.03%)
12 mm: Inhibitory zone diameter ([2]; treatment concentration 0.1%) | Inhibitory zone diameter ([4]; treatment concentration 0.03%) | Inhibitory zone diameter ([5]; treatment concentration 0.1%) | Inhibitory zone diameter ([7]; treatment concentration 0.1%) | Inhibitory zone diameter ([10]; treatment concentration 1.0%) | Inhibitory zone diameter ([11]; treatment concentration 0.03%)
15 mm: Inhibitory zone diameter ([6]; treatment concentration 0.3%)
17 mm: Inhibitory zone diameter ([2]; treatment concentration 0.3%) | Inhibitory zone diameter ([3]; treatment concentration 0.3%) | Inhibitory zone diameter ([4]; treatment concentration 0.3%) | Inhibitory zone diameter ([7]; treatment concentration 0.3%)
19 mm: Inhibitory zone diameter ([1]; treatment concentration 1.0%) | Inhibitory zone diameter ([2]; treatment concentration 1.0%) | Inhibitory zone diameter ([3]; treatment concentration 1.0%) | Inhibitory zone diameter ([4]; treatment concentration 1.0%) | Inhibitory zone diameter ([7]; treatment concentration 1.0%)
10.5 mm: Inhibitory zone diameter ([1]; treatment concentration 0.03%) | Inhibitory zone diameter ([10]; treatment concentration 0.1%) | Inhibitory zone diameter ([11]; treatment concentration 0.01%)
0.03%: MIC [14] | MIC [15] | MIC [17]
13 mm: Inhibitory zone diameter ([1]; treatment concentration 0.1%) | Inhibitory zone diameter ([3]; treatment concentration 0.1%) | Inhibitory zone diameter ([4]; treatment concentration 0.1%) | Inhibitory zone diameter ([8]; treatment concentration 0.1%) | Inhibitory zone diameter ([9]; treatment concentration 0.3%)
16 mm: Inhibitory zone diameter ([5]; treatment concentration 0.3%) | Inhibitory zone diameter ([8]; treatment concentration 1.0%) | Inhibitory zone diameter ([11]; treatment concentration 0.3%)
11 mm: Inhibitory zone diameter ([2]; treatment concentration 0.03%) | Inhibitory zone diameter ([4]; treatment concentration 0.01%) | Inhibitory zone diameter ([5]; treatment concentration 0.03%) | Inhibitory zone diameter ([6]; treatment concentration 0.03%) | Inhibitory zone diameter ([6]; treatment concentration 0.1%) | Inhibitory zone diameter ([7]; treatment concentration 0.03%) | Inhibitory zone diameter ([8]; treatment concentration 0.03%) | Inhibitory zone diameter ([9]; treatment concentration 0.1%) | Inhibitory zone diameter ([10]; treatment concentration 0.3%)
0.01%: MIC [19]
0.015%: MIC [16]

Source: patent US20080262082A1, “COMPOSITION CONTAINING S-(-)-TULIPALIN B OR ACETYLATED-S-(-)-TULIPALIN B” (BIO SPECTRUM, INC., priority 2007, published 2008)
